Assays:
[1] = tested on: human cardiac fibroblasts; assay: BrdU incorporation, cardiac fibroblast proliferation; format: cell-based; conditions: 5 ng/ml TGFβ
Protocol: Cells were placed in 96-well plates and cultured for 24 h before changing to serum-free medium. […] Subsequently, 10 μmol/L of 5-bromo-2′-deoxyuridine (BrdU) was added to the cells, and they were cultured for an additional 24 h. BrdU incorporation was detected using the Cell Proliferation ELISA kit (Roche, Indianapolis, Ind.). Data was analyzed by ANOVA using the Newman-Keuls test to assess significance.

[2] = tested on: human cardiac fibroblasts; assay: Real-time RT-PCR gene expression in cardiac fibroblasts; format: cell-based; conditions: normalized to 18s RNA
Protocol: Real-time RT-PCR^18 was performed in a two-step manner. cDNA synthesis and real-time detection were carried out in a PTC-100™ Thermal Cycler (MJ Research Inc, Waltham, Mass.) and an ABI Prism™ 7700 Sequence Detection System (Applied Biosystems, Foster City, Calif.), respectively. Random hexamers (Qiagen, Valencia, Calif.) were used to generate cDNA from 200 ng RNA as described in Applied Biosystems User Bulletin #2. TaqMan™ PCR Core Reagent Kit or TaqMan™ Universal PCR Master Mix (Applied Biosystems) were used in subsequent PCR reactions according to the manufacturer's protocols. Relative quantitation of gene expression was performed using the relative standard curve method. All real-time RT-PCR reactions were performed in triplicate.
Sequence specific primers and probes were designed using Primer Express Version 2 software (Applied Biosystems). Sequences of primers and probes can be found in Table 1 below. Expression levels were normalized to 18S rRNA. The selection of 18S rRNA as an endogenous control was based on an evaluation of the ΔCT levels (Applied Biosystems document # 4308134C) of 6 “housekeeping” genes: Cyclophilin A, 18S, GAPDH, β-actin, β-Glucuronidase, and Hypoxanthine Guanine Phosphoribosyl Transferase.

[3] = tested on: human cardiac fibroblasts; assay: Western blot analysis of Collagen 1 and Fibronectin protein; format: cell-based; conditions: 48 h
Protocol: Lysis was induced with 0.2 ml of buffer containing 20 mM Tris-HCL, pH 7.9, 137 mM NaCl, 1% Triton X-100, 5 mM EDTA, 10 mM NaF, 1 mM β-glycerophosphate, and protease inhibitor cocktail. The protein concentration of each lysate was measured using coomassie protein reagent from PIERCE. Twenty μg of protein from each sample was loaded and electrophoresed on 4-12% gradient polyacrylamide gels and electrophoretically transferred to nitrocellulose membranes (Invitrogen, San Diego, Calif.). The membranes were incubated with rabbit anti-human Collagen 1 antibody (Cortex Biochem, San Leandro, Calif.), HRP-conjugated anti-human Fibronectin antibody, or goat anti-Actin antibody (Santa Cruz Biotehnology, Santa Cruz, Calif.) in TBST buffer containing 20 mM Tris-HCl, pH 7.5, 150 mM NaCl, 0.1% Tween-20, and 5% nonfat dried milk at 4° C. for ˜16 h. For ERK phosphorylation, cells were treated with 0.5 μmol/L BNP in the presence of 1 μmol/L KT5823 or 10 μmol/L U0126 for 15 min; the membranes were incubated with rabbit anti-human phospho-ERK ½ antibody or rabbit anti-human ERK ½ antibody (Cell Signaling, Beverly, Mass.). For secondary antibody detection, membranes were incubated with HRP-conjugated anti-rabbit antibody or anti-goat antibody at room temperature for 1 h and washed 3 times with TBST buffer. The blots were soaked in ECL Plus reagent for 5 min and exposed to KODAK x-ray film. Signals were identified and quantified using a Typhoon Scanner and Densitometer from Amersham Biosciences (Piscataway, N.J.). Data was analyzed by ANOVA using the Newman-Keuls test to assess significance. Results cGMP Production in Cardiac Fibroblasts

[4] = tested on: human cardiac fibroblasts; assay: cDNA microarray gene expression profiling of TGFβ- and/or BNP-treated cardiac fibroblasts; conditions: for number of gene expression changes induced: 1.8-fold threshold
Protocol: Two lots of primary human cardiac fibroblasts, derived from a person (lot 1) and a person (lot 2), were provided by Cambrex Bio Science (Walkersville, Md.). Cells stained positive for α-smooth muscle actin and vimenfin antibodies corroborating their identity as cardiac fibroblasts and myofibroblasts. Both lots were used for the real-time RT-PCR studies; lot 1 was used for the microarray analysis. Cells at passage 3-5 were cultured in FGM containing 15% FBS. At confluence, cells were split and cultured in 6-well plates for 24 h.
Gene expression profiles were determined from cDNA microarrays containing 8,600 elements derived from clones isolated from normalized cDNA libraries or purchased from ResGen (Invitrogen Life Technologies, Carlsbad, Calif.). DNA for spotting was generated by PCR amplification using 5′amino-modified primers (BD Biosciences Clontech, Palo Alto, Calif.) derived from flanking vector sequences. Amplified DNA was purified in a 96-well format using Qiagen's Qiaquick columns (Valencia, Calif.) according to the manufacturer's recommendations. Samples were eluted in Milli-Q purified water, dried to completion and resuspended in 7 μl of 3×SSC. A fluorescent assay using PicoGreen (Molecular Probes, Eugene, Oreg.) was randomly performed on 12% of the PCR products to determine the average yield after purification; yields were ˜1.5 μg of DNA which corresponds to a concentration of 214 μg/ml. Purified DNA was arrayed from 384-well microtiter plates onto lysine-coated glass slides using an OmniGrid II microarrayer (GeneMachines, San Carlos, Calif.). After printing, DNA was cross-linked to the glass with 65 mjoules UV irradiation and reactive amines were blocked by treatment with succinic anhydride.
Total RNA was extracted from cells using Qiagen's RNeasy kit; two wells from a 6 well plate were pooled to yield a total of 4×10^5 cells per treatment. RNA was amplified using a modified Eberwine protocol^5 that incorporated a polyA tail into the amplified RNA. Fluorescently-labeled cDNA probes were generated by reverse transcription of 4 μg of RNA with SuperScript II (Invitrogen Life Technologies, Carlsbad, Calif.) using anchored dT primers in the presence of Cy3 or Cy5 dUTP (Amersham, Piscataway, N.J.). Labeled cDNA probe pairs were precipitated with ethanol and purified using Qiaquick columns. Twenty μg each of poly(A) DNA, yeast tRNA, and human Cot1 DNA (Applied Genetics, Melbourne, Fla.) was added to the eluant. The samples were dried to completion and resuspended in 12.5 μl 3×SSC, 0.1% SDS. Probes were heated to 95° C. for 5 minutes, applied to the arrays under a 22 mm^2 cover slip and allowed to hybridize for at least 16 h at 65° C. The arrays were washed at 55° C. for 10 minutes in 2×SSC, 0.1% SDS, followed by two washes at room temperature in 1×SSC (10 min) and 0.2×SSC (15 min). Hybridization of each fluorophore was quantified using an Axon GenePix 4000A scanner.
Differential expression values were expressed as the ratio of the median of background-subtracted fluorescent intensity of the experimental RNA to the median of background-subtracted fluorescent intensity of the control RNA. For ratios greater than or equal to 1.0, the ratio was expressed as a positive value. For ratios less than 1.0, the ratio was expressed as the negative reciprocal (i.e., a ratio of 0.5=−2.0). Median ratios were normalized to 1.0 using two pools of 3000 randomly chosen cDNAs in each pool. Six replicates of each of the two pools were printed in 4 evenly distributed blocks of the array. Expression data was rejected if neither channel produced a signal of at least 2.0-fold over background. Differential expression ratios were determined as the mean of the two values from dye-swapped duplicates.

## TGFβ
[1]
  increase in cardiac fibroblast proliferation (BrdU incorporation): ~50%
[2]; 6 h, lot 1
  ACTA2 expression level relative to control: 1.1 ± 0.11
  CTGF expression level relative to control: 3.5 ± 0.08
  Collagen 1 expression level relative to control: 1.9 ± 0.04
  Fibronectin expression level relative to control: 1.1 ± 0.17
  IL6 expression level relative to control: 3.6 ± 0.27
  IL11 expression level relative to control: 13.3 ± 0.89
  PTGS2/COX-2 expression level relative to control: 9.0 ± 1.49
  SERPINE1/PAI-1 expression level relative to control: 7.3 ± 0.44
  TIMP3 expression level relative to control: 1.4 ± 0.03
[2]; 24 h, lot 1
  ACTA2 expression level relative to control: 2.2 ± 0.00
  CTGF expression level relative to control: 3.3 ± 0.25
  Collagen 1 expression level relative to control: 3.3 ± 0.05
  Fibronectin expression level relative to control: 1.0 ± 0.05
  IL6 expression level relative to control: 1.7 ± 0.14
  IL11 expression level relative to control: 32.3 ± 0.82
  PTGS2/COX-2 expression level relative to control: 3.5 ± 0.67
  SERPINE1/PAI-1 expression level relative to control: 8.5 ± 0.08
  TIMP3 expression level relative to control: 2.6 ± 0.26
[2]; 24 h, lot 2
  ACTA2 expression level relative to control: 2.3 ± 0.12
  CTGF expression level relative to control: 2.2 ± 0.16
  Collagen 1 expression level relative to control: 1.5 ± 0.09
  Fibronectin expression level relative to control: 1.0 ± 0.02
  IL6 expression level relative to control: 1.4 ± 0.05
  IL11 expression level relative to control: 7.7 ± 0.81
  PTGS2/COX-2 expression level relative to control: 4.9 ± 0.36
  SERPINE1/PAI-1 expression level relative to control: 2.4 ± 0.06
  TIMP3 expression level relative to control: 1.5 ± 0.12
[2]; 48 h, lot 1
  ACTA2 expression level relative to control: 1.0 ± 0.19
  CTGF expression level relative to control: 3.1 ± 0.01
  Collagen 1 expression level relative to control: 3.8 ± 0.38
  Fibronectin expression level relative to control: 2.2 ± 0.38
  IL6 expression level relative to control: 1.6 ± 0.12
  IL11 expression level relative to control: 17.6 ± 0.22
  PTGS2/COX-2 expression level relative to control: 2.2 ± 0.12
  SERPINE1/PAI-1 expression level relative to control: 8.4 ± 1.33
  TIMP3 expression level relative to control: 3.0 ± 0.34
[2]; 48 h, lot 2
  ACTA2 expression level relative to control: 2.5 ± 0.13
  CTGF expression level relative to control: 2.1 ± 0.14
  Collagen 1 expression level relative to control: 2.5 ± 0.32
  Fibronectin expression level relative to control: 2.0 ± 0.39
  IL6 expression level relative to control: 1.4 ± 0.17
  IL11 expression level relative to control: 5.9 ± 0.18
  PTGS2/COX-2 expression level relative to control: 5.4 ± 0.92
  SERPINE1/PAI-1 expression level relative to control: 2.6 ± 0.03
  TIMP3 expression level relative to control: 1.7 ± 0.13
[3]
  induction of Collagen 1 protein synthesis: ~3 fold
[4]; 24 h
  number of gene expression changes induced: 394
[4]; 24 h, microarray
  TNFAIP6 expression elevation: ~3 fold
  TNFSF4 expression elevation: ~3 fold
[4]; 48 h
  number of gene expression changes induced: 501

From patent US20060019890A1, “Method for treating cardiac remodeling following myocardial injury” (priority 2004, published 2006)
